The target in experiment [1] is biotinylated human Gal-3 (hGal-3) (Homo sapiens, UniProt P17931). The experiment is described as follows: Competitive binding assay: biotinylated hGal-3 binding to microplate-adsorbed asialofetuin (ASF), spectrophotometric. In short, it runs like this:
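Competitive binding of biotinylated hGal-3 to plate-adsorbed asialofetuin was measured with serially diluted compounds over 3 h at 4° C. Bound protein was detected with streptavidin-peroxidase and ABTS substrate by absorbance. IC50 values are means of several measurements.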

Another experiment has as its target human Gal-1 (hGal-1) (Homo sapiens, UniProt P09382). Kind of experiment: Competitive binding assay: biotinylated hGal-1 binding to microplate-adsorbed asialofetuin (ASF), spectrophotometric. The settings on record: hGal-1 binding to asialofetuin; Table 15; R and S epimers of selected Examples also listed; read-out: IC50 (Galectin-1 inhibition). In short, it runs like this:
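Biotinylated hGal-1 (300-1000 ng/mL) incubated with compound on asialofetuin-coated plates 3 hours at 4 °C, washed, then streptavidin-peroxidase (80 ng/mL) 1 hour at 4 °C. ABTS substrate read spectrophotometrically; IC50 reported as mean of several measurements.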

Where [2] appears, read: Gal-3 inhibition, Table 5, read-out: IC50.
The mark [3] stands for this setting: Gal-3 inhibition, Table 4, read-out: IC50.
Setting [4] is: Table 6, hGal-3, read-out: IC50 (Gal-3 inhibition).
Setting [5] is: Table 8, hGal-3, read-out: IC50 (Gal-3 inhibition).

18 compounds from patent publication US12410208B2, “(2-acetamidyl)thio-beta-D-galactopyranoside derivatives” (Idorsia Pharmaceuticals Ltd, priority 2020, dated 2025) can be followed below.

Where two headings read alike, the source gives them in different places.

Sequence of human Gal-1 (hGal-1) (P09382 whole entry): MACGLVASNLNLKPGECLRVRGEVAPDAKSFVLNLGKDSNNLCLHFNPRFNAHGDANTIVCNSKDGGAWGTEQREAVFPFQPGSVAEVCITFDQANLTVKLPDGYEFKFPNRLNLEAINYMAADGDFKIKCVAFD
Sequence of biotinylated human Gal-3 (hGal-3) (P17931 whole entry): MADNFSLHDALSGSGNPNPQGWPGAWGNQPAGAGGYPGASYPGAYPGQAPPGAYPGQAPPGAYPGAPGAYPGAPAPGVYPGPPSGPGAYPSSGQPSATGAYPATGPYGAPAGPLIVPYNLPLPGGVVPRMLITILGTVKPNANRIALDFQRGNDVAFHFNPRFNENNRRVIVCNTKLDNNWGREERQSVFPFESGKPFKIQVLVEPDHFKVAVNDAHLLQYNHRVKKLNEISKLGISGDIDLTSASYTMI

The term IC50 denotes the concentration at which inhibition is half-maximal. For the compound `CN(CC1CC1)C(=O)[C@H](S[C@@H]1O[C@H](CO)[C@H](O)[C@H](n2cc(-c3cc(F)c(F)c(F)c3)nn2)[C@H]1O)C1(O)CC(F)(F)C1` [Example 2.33.218R., (R)-N-(Cyclopropylmethyl)-2-(3,3-difluoro-1-hydroxycyclobutyl)-2-(((2S,3R,4S,5R,6R)-3,5-dihydroxy-6-(hydroxymethyl)-4-(4-(3,4,5-trifluorophenyl)-1H-1,2,3-triazol-1-yl)tetrahydro-2H-pyran-2-yl)thio)-N-methylacetamide], the figures for the IC50 (in experiment [1] (setting [2]); on human Gal-1 (hGal-1)) were 440 nM and 580 nM, respectively.
With “1-(4,4-Difluoropiperidin-1-yl)-2-(4-hydroxy-2,2-dimethyltetrahydro-2H-pyran-4-yl)-2-(((2S,3R,4S,5R,6R)-5-hydroxy-6-(hydroxymethyl)-3-methoxy-4-(4-(3,4,5-trifluorophenyl)-1H-1,2,3-triazol-1-yl)tetrahydro-2H-pyran-2-yl)thio)ethan-1-one [Example 2.43.226.I.]”, the IC50 in experiment [1] (Table 13, hGal-3, read-out: IC50 (Gal-3 inhibition)) was 250 nM; on human Gal-1 (hGal-1), 460 nM.
As for “(R)-2-(((2S,3R,4S,5R,6R)-3,5-Dihydroxy-6-(hydroxymethyl)-4-(4-(3,4,5-trifluorophenyl)-1H-1,2,3-triazol-1-yl)tetrahydro-2H-pyran-2-yl)thio)-2-(1-hydroxycyclohexyl)-N-methyl-N-(pyridin-2-ylmethyl)acetamide [Example 2.39.224R.]”, the results for the half-maximal inhibitory concentration (IC50) (in experiment [1] (setting [2]); on human Gal-1 (hGal-1)) were 1400 nM and 2820 nM, respectively.
The corresponding values for `CN(CC(F)(F)F)C(=O)[C@@H](S[C@@H]1O[C@H](CO)[C@H](O)[C@H](n2cc(-c3cc(F)c(F)c(F)c3)nn2)[C@H]1O)C1(O)CCCCC1` [Example 2.39.219S., (S)-2-(((2S,3R,4S,5R,6R)-3,5-Dihydroxy-6-(hydroxymethyl)-4-(4-(3,4,5-trifluorophenyl)-1H-1,2,3-triazol-1-yl)tetrahydro-2H-pyran-2-yl)thio)-2-(1-hydroxycyclohexyl)-N-methyl-N-(2,2,2-trifluoroethyl)acetamide] are 60 nM and 100 nM.
“2-(((2S,3R,4S,5R,6R)-3,5-Dihydroxy-6-(hydroxymethyl)-4-(4-(3,4,5-trifluorophenyl)-1H-1,2,3-triazol-1-yl)tetrahydro-2H-pyran-2-yl)thio)-N-ethyl-2-(4-hydroxy-1-methylpiperidin-4-yl)-N-methylacetamide [Example 2.40.203.]”: the IC50 in experiment [1] (setting [3]) was 80 nM; at human Gal-1 (hGal-1) it was 160 nM.
For `COCCN(C)C(=O)C(S[C@@H]1O[C@H](CO)[C@H](O)[C@H](n2cc(-c3cc(F)c(F)c(F)c3)nn2)[C@H]1O)C(C)(C)O` (stereo partly drawn) [Example 2.31.229., 2-(((2S,3R,4S,5R,6R)-3,5-Dihydroxy-6-(hydroxymethyl)-4-(4-(3,4,5-trifluorophenyl)-1H-1,2,3-triazol-1-yl)tetrahydro-2H-pyran-2-yl)thio)-3-hydroxy-N-(2-methoxyethyl)-N,3-dimethylbutanamide], the values for the IC50 (in experiment [1] (setting [4]); on human Gal-1 (hGal-1)) were 110 nM and 800 nM, respectively.
Consider `CC(C)CN(C)C(=O)[C@H](S[C@@H]1O[C@H](CO)[C@H](O)[C@H](n2cc(-c3cc(F)c(F)c(F)c3)nn2)[C@H]1O)C1(O)CCOCC1` [Example 2.41.200R., (R)-2-(((2S,3R,4S,5R,6R)-3,5-Dihydroxy-6-(hydroxymethyl)-4-(4-(3,4,5-trifluorophenyl)-1H-1,2,3-triazol-1-yl)tetrahydro-2H-pyran-2-yl)thio)-2-(4-hydroxytetrahydro-2H-pyran-4-yl)-N-isobutyl-N-methylacetamide], for which the IC50 in experiment [1] (Gal-3 inhibition, Table 2, read-out: IC50) is 4010 nM; at human Gal-1 (hGal-1), 10900 nM.
With `CCN(C)C(=O)C(S[C@@H]1O[C@H](CO)[C@H](O)[C@H](n2cc(-c3cc(F)c(F)c(F)c3)nn2)[C@H]1O)C1(O)CCN(C(=O)NC2CC2)CC1` (stereo partly drawn) [Example 2.49.203., N-Cyclopropyl-4-(1-(((2S,3R,4S,5R,6R)-3,5-dihydroxy-6-(hydroxymethyl)-4-(4-(3,4,5-trifluorophenyl)-1H-1,2,3-triazol-1-yl)tetrahydro-2H-pyran-2-yl)thio)-2-(ethyl(methyl)amino)-2-oxoethyl)-4-hydroxypiperidine-1-carboxamide], the values for the IC50 (in experiment [1] (setting [5]); at human Gal-1 (hGal-1)) were 50 nM and 70 nM, respectively.
As for `CN1CCC(O)(C(S[C@@H]2O[C@H](CO)[C@H](O)[C@H](n3cc(-c4cc(F)c(F)c(F)c4)nn3)[C@H]2O)C(=O)N2CCCCC2)CC1` (stereo partly drawn) [Example 2.40.208., 2-(((2S,3R,4S,5R,6R)-3,5-Dihydroxy-6-(hydroxymethyl)-4-(4-(3,4,5-trifluorophenyl)-1H-1,2,3-triazol-1-yl)tetrahydro-2H-pyran-2-yl)thio)-2-(4-hydroxy-1-methylpiperidin-4-yl)-1-(piperidin-1-yl)ethan-1-one], the IC50 in experiment [1] (setting [3]) came out at 30 nM; at human Gal-1 (hGal-1) it was 50 nM.
As for “N-Cyclopropyl-4-(2-(ethyl(methyl)amino)-1-(((2S,3R,4S,5R,6R)-5-hydroxy-6-(hydroxymethyl)-3-methoxy-4-(4-(3,4,5-trifluorophenyl)-1H-1,2,3-triazol-1-yl)tetrahydro-2H-pyran-2-yl)thio)-2-oxoethyl)-4-hydroxypiperidine-1-carboxamide [Example 2.49.226.I.]”, the results for the IC50 (in experiment [1] (setting [5]); on human Gal-1 (hGal-1)) were 100 nM and 180 nM, respectively.
Regarding `CN(C)C(=O)C(S[C@@H]1O[C@H](CO)[C@H](O)[C@H](n2cc(-c3cc(F)c(F)c(F)c3)nn2)[C@H]1O)C1(O)CCC(F)(F)CC1` (single isomer, unassigned) [Example 2.44.201S.], the results for the IC50 (in experiment [1] (setting [2]); at human Gal-1 (hGal-1)) were 40 nM and 180 nM, respectively.
The corresponding values for `CN(CC(C)(C)F)C(=O)[C@H](S[C@@H]1O[C@H](CO)[C@H](O)[C@H](n2cc(-c3cc(F)c(F)c(F)c3)nn2)[C@H]1O)C1(O)CCC1` [Example 2.34.222R., (R)-2-(((2S,3R,4S,5R,6R)-3,5-Dihydroxy-6-(hydroxymethyl)-4-(4-(3,4,5-trifluorophenyl)-1H-1,2,3-triazol-1-yl)tetrahydro-2H-pyran-2-yl)thio)-N-(2-fluoro-2-methylpropyl)-2-(1-hydroxycyclobutyl)-N-methylacetamide] are 8610 nM and 46000 nM.
The corresponding values for `O=C(C(S[C@@H]1O[C@H](CO)[C@H](O)[C@H](n2cc(-c3cc(F)c(F)c(F)c3)nn2)[C@H]1O)C1(O)CCCCC1)N1CCCCC1` (stereo partly drawn) [Example 2.39.208., 2-(((2S,3R,4S,5R,6R)-3,5-Dihydroxy-6-(hydroxymethyl)-4-(4-(3,4,5-trifluorophenyl)-1H-1,2,3-triazol-1-yl)tetrahydro-2H-pyran-2-yl)thio)-2-(1-hydroxycyclohexyl)-1-(piperidin-1-yl)ethan-1-one] are 20 nM and 70 nM.
On to `CN(C(=O)[C@H](S[C@@H]1O[C@H](CO)[C@H](O)[C@H](n2cc(-c3cc(F)c(F)c(F)c3)nn2)[C@H]1O)C1(O)CCOCC1)c1ccccc1` [Example 2.41.231R.], for which the IC50 in experiment [1] (Table 9, hGal-3, read-out: IC50 (Gal-3 inhibition)) worked out at 3440 nM; at human Gal-1 (hGal-1) it was 8260 nM.
Take `CCC(O)(CC)C(S[C@@H]1O[C@H](CO)[C@H](O)[C@H](n2cc(-c3cc(F)c(F)c(F)c3)nn2)[C@H]1O)C(=O)N(C)CC1CC1` (stereo partly drawn) [Example 2.32.218., N-(Cyclopropylmethyl)-2-(((2S,3R,4S,5R,6R)-3,5-dihydroxy-6-(hydroxymethyl)-4-(4-(3,4,5-trifluorophenyl)-1H-1,2,3-triazol-1-yl)tetrahydro-2H-pyran-2-yl)thio)-3-ethyl-3-hydroxy-N-methylpentanamide]: the IC50 was found to be 710 nM in experiment [1] (setting [4]) and 1130 nM at human Gal-1 (hGal-1).
As to `CN(CC1CC1)C(=O)[C@H](S[C@@H]1O[C@H](CO)[C@H](O)[C@H](n2cc(-c3cc(F)c(F)c(F)c3)nn2)[C@H]1O)C1(O)CCC1` [Example 2.34.218R., (R)-N-(Cyclopropylmethyl)-2-(((2S,3R,4S,5R,6R)-3,5-dihydroxy-6-(hydroxymethyl)-4-(4-(3,4,5-trifluorophenyl)-1H-1,2,3-triazol-1-yl)tetrahydro-2H-pyran-2-yl)thio)-2-(1-hydroxycyclobutyl)-N-methylacetamide], the IC50 in experiment [1] (setting [2]) worked out at 6080 nM; on human Gal-1 (hGal-1), 20900 nM.
On to `CCN(C)C(=O)[C@@H](S[C@@H]1O[C@H](CO)[C@H](O)[C@H](n2cc(-c3cc(F)c(F)c(F)c3)nn2)[C@H]1O)C1CCOCC1` [Example 2.56.203S., (S)-2-(((2S,3R,4S,5R,6R)-3,5-dihydroxy-6-(hydroxymethyl)-4-(4-(3,4,5-trifluorophenyl)-1H-1,2,3-triazol-1-yl)tetrahydro-2H-pyran-2-yl)thio)-N-ethyl-N-methyl-2-(tetrahydro-2H-pyran-4-yl)acetamide, reference compound], for which the 50% inhibitory concentration (IC50) came out at 6860 nM in experiment [1] (Gal-3 inhibition, Table 1 (Reference Examples), read-out: IC50) and 36000 nM on human Gal-1 (hGal-1).
Take `CCN(C)C(=O)[C@@H](S[C@@H]1O[C@H](CO)[C@H](O)[C@H](n2cc(-c3cc(F)c(F)c(F)c3)nn2)[C@H]1O)C1(O)CC(F)(F)C1` [Example 2.33.203S., (S)-2-(3,3-Difluoro-1-hydroxycyclobutyl)-2-(((2S,3R,4S,5R,6R)-3,5-dihydroxy-6-(hydroxymethyl)-4-(4-(3,4,5-trifluorophenyl)-1H-1,2,3-triazol-1-yl)tetrahydro-2H-pyran-2-yl)thio)-N-ethyl-N-methylacetamide]: the IC50 in experiment [1] (setting [2]) is 50 nM; on human Gal-1 (hGal-1), 110 nM.
